One data set deals with PDGF receptor. Put plainly: Inhibition of signal transduction via PDGF receptor.
The subject of a further data set is SF763T human glioma. Kind of data set: SC tumor xenograft growth, SF763T. It counts as in vivo, BALB/c nu/nu mice. The conditions noted are these: IP in DMSO, 75 mg/kg/d daily. The procedure: (§1) Medium was changed every two to three days.
(§2) In most experiments, compound was administered daily.
(§3) Tumor growth was measured using venier calipers. Tumor volumes were calculated as the produce of length x width x height.

A further data set relates to C6 rat glioma. Kind of data set: SC tumor xenograft growth, C6, treatment from one day post-implantation. It is filed as in vivo, BALB/c nu/nu mice. Conditions: IP. The procedure:
as §2, §3

The next data set deals with A375 human melanoma. Kind of data set: SC tumor xenograft growth, A375. Conditions: IP in DMSO, 75 mg/kg/d dosed 3x/week. It counts as in vivo. The procedure: as §2, §3
The test system of a further data set is C6 cells. Put plainly: Efficacy on established C6 SC tumors. It counts as in vivo, athymic mice. The conditions noted are these: IP 75 mg/kg/day, onset delayed until measurable tumors were present (Day 7).
The next data set relates to A431 human epidermal. Put plainly: SC tumor xenograft growth, A431. It is filed as in vivo, BALB/c nu/nu mice. The conditions noted are these: IP in DMSO, 100 mg/kg/d daily. As to the method:
as §2, §3

Data set [1] deals with EpH4-VEGF1 murine epithelial. Kind of data set: SC tumor xenograft growth, EpH4-VEGF1. It counts as in vivo. Conditions: IP in DMSO, 75 mg/kg/d daily. The procedure:
as §2, §3

The next data set in a line: pH solubility profile. It counts as physicochemical. Conditions: 0.1 M phosphate buffer, thermodynamic from solid.
Another data set has as its target Flk-1/KDR (Homo sapiens, UniProt P35968). Kind of data set: Inhibition of signal transduction via Flk-1/KDR.
A further data set relates to FGF receptor. Put plainly: Inhibition of signal transduction via FGF receptor.
The next data set deals with SF767T human glioma. Kind of data set: SC tumor xenograft growth, SF767T. It counts as in vivo, BALB/c nu/nu mice. The conditions noted are these: IP in DMSO, 75 mg/kg/d daily. As to the method:
as §1, §2, §3

Another data set in a line: physchem. It counts as physicochemical.
A short description of data set [2]: Oral bioavailability of formulations in beagle dogs. It is filed as in vivo. Conditions: at higher doses in fasted conditions. The procedure:
The formulation described below enhance the oral bioaviability of COMPOUND IV in beagle dogs, a preclinical absorption model.
Both formulations contain 50 mg/gm of Pluroanic F-68. The formulation at 50 mg/gm of COMPOUND IV contains 900 mgs of sesame oil and the one that contains 250 mg/gm of COMPOUND IV contains 700 mgs of sesame oil.
AUC refers to the area under the curve of the plasma concentration time curve and represents oral bioavilability (BA). Higher AUC indicates higher BA.

A short description of data set [3]: Solubility of in situ salts versus free acid. It is filed as physicochemical.

In brackets after ≈: the same amount, converted by molar mass.

The source of these data is US6878733B1, “Formulations for pharmaceutical agents ionizable as free acids or free bases” (Sugen, Inc., priority 1999, dated 2005).

The term solubility denotes how much of the substance goes into solution per volume. As a reminder, the logP is the decadic logarithm of the partition coefficient of the neutral form, usually between octanol and water. For orientation: pKa means the pH at which an ionisable group is half protonated. Low values mean a group that gives up its proton readily, high ones a group that holds its proton tightly. A word on the logD: it is the decadic logarithm of the distribution of all forms, ionised or not, between an organic phase and buffer at a given pH.

Chain of Flk-1/KDR (P35968 20-1356): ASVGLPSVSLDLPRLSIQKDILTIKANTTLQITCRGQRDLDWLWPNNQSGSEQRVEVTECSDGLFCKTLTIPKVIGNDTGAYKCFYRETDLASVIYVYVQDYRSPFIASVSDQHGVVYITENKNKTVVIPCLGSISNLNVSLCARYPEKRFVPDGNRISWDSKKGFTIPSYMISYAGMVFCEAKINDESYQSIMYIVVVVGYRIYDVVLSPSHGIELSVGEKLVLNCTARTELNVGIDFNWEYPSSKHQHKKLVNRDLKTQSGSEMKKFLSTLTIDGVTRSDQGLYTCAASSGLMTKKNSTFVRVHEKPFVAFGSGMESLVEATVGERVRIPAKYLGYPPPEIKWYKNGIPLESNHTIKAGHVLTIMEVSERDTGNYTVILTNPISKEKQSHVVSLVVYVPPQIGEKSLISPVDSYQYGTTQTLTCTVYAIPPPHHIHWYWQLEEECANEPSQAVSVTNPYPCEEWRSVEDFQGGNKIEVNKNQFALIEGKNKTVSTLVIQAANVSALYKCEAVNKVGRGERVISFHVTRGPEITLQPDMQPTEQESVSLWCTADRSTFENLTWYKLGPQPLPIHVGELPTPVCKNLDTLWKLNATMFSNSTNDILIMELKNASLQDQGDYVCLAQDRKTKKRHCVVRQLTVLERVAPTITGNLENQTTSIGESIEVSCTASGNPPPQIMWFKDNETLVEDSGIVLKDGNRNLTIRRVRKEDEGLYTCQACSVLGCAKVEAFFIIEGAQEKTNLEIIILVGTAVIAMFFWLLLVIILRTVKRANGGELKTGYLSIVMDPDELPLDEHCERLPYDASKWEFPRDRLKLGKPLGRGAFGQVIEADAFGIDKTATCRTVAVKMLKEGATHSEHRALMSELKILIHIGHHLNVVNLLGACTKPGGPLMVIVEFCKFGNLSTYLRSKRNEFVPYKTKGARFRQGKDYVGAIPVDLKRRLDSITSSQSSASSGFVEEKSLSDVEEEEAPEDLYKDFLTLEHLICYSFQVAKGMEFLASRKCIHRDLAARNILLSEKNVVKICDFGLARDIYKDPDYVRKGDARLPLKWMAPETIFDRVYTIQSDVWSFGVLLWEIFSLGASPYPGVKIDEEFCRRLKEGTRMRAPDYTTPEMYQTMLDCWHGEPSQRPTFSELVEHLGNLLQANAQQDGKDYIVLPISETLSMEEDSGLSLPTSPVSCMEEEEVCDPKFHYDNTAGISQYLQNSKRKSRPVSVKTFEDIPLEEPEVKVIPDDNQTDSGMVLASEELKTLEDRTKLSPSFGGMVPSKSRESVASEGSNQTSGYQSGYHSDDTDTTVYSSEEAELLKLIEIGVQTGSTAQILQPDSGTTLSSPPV
Procedure for pH solubility profile: The solution was filtered, appropriate dilutions made and the concentration of the compound in the supernatant was analyzed by a reverse phase HPLC method.

In the case of `Cc1[nH]c(C=C2C(=O)Nc3ccccc32)c(C)c1CCC(=O)O` [3-[2,4-Dimethyl-5-(2-oxo-1,2-dihydro-indol-3-ylidenemethyl)-1H-pyrrol-3-yl]-propionic acid], the “inhibitor of signal transduction via PDGF receptor” value with PDGF receptor was “potent inhibitor”. For the same compound, the “% Mortality” value is recorded as 12.5% with SF763T human glioma; 0% in the data set on A375 human melanoma; 12.5% with A431 human epidermal; 0% in data set [1]; 12.5% with SF767T human glioma. The “% Inhibition (at day)” value with C6 rat glioma (25 mg/kg Daily × 5, day 18, ns (P > 0.05)) was 1 (18) %. For the same compound, in the data set with C6 rat glioma (100 mg/kg twice weekly or three times weekly, statistically significant), the tumor growth inhibition entry was “approximately 40%”. Further, in the data set on C6 cells, the “efficacy on established tumors” value was “efficacious”. Moreover, the solubility in the data set “pH solubility profile” (pH 6, aqueous buffer, pH of buffer 6.0 (0.1 M phosphate), average pH at equilibrium 6.06, two lots) stood at 2.4 µg/mL (≈ 7.73 µM); in “pH solubility profile” (pH 6.5, aqueous buffer, pH of buffer 6.5 (0.1 M phosphate), average pH at equilibrium 6.52), 4 µg/mL (≈ 12.9 µM); in “pH solubility profile” (pH 7, aqueous buffer, pH of buffer 7.0 (0.1 M phosphate), average pH at equilibrium 6.96), 9 µg/mL (≈ 29 µM); in “pH solubility profile” (pH 7.4, aqueous buffer, pH of buffer 7.4 (0.1 M phosphate), average pH at equilibrium 7.39), 19 µg/mL (≈ 61.2 µM). Moreover, the “inhibitor of signal transduction via Flk-1/KDR” value against Flk-1/KDR is recorded as “potent inhibitor”. Moreover, the “inhibitor of signal transduction via FGF receptor” value in the data set with FGF receptor was “potent inhibitor”. In the data set “physchem”, the logP worked out at 3.85. Also, in “physchem”, the pKa stood at 5.02. The compound also registered a log distribution coefficient (logD) in the data set “physchem” (pH 7.4) of 1.5.

Regarding `Cc1[nH]c(/C=C2\C(=O)Nc3ccccc32)c(C)c1CCC(=O)O` [COMPOUND IV, 3-[2,4-dimethyl-5-(2-oxo-1,2-dihydro-indol-3-ylidenemethyl)-1H-pyrrol-3-yl]-propionic acid], the oral bioavailability result in data set [2] was “low bioavailability”.

Turning to `Cc1[nH]c(C=C2C(=O)Nc3ccccc32)c(C)c1CCC(=O)O` [Meglumine, 3-[2,4-dimethyl-5-(2-oxo-1,2-dihydro-indol-3-ylidenemethyl)-1H-pyrrol-3-yl]-propionic acid], in [3] (aqueous solution of the salt formed in situ, salt of 3-[2,4-dimethyl-5-(2-oxo-1,2-dihydro-indol-3-ylidenemethyl)-1H-pyrrol-3-yl]-propionic acid, in situ salt formation, pH in the column beside, read-out: Solubility), the solubility was found to be 7900 µg/mL.

On to `Cc1[nH]c(C=C2C(=O)Nc3ccccc32)c(C)c1CCC(=O)O` [free acid, 3-[2,4-dimethyl-5-(2-oxo-1,2-dihydro-indol-3-ylidenemethyl)-1H-pyrrol-3-yl]-propionic acid], for which the solubility in [3] (water, aqueous, sodium salt compared to free acid, read-out: solubility) was under 100 µg/mL; in data set [3] (water, free acid, for comparison with the sodium salt, read-out: aqueous solubility), about 30 µg/mL.
